Literature values, collected in the CATMoS acute toxicity set (Mansouri et al. 2021).
Values joined by “and” are separate entries in the source; they are usually repeats but may differ in a detail not shown here. Identical values can stand only once.

Assay: rat acute oral toxicity
Settings: in vivo

| Compound | LD50 |
| --- | --- |
| FC(F)OC(Cl)C(F)(F)F (configuration not stated) | 4770 mg/kg |
| CC[C@H](C)N | 380 mg/kg |
| C=CC(=O)OCCOCCOCCOCCOC(=O)C=C | 813 mg/kg |
| CCCC(=O)OC1CCC(N2CCCCC2)CC1 (configuration not stated) | 1910 mg/kg |
| CCOP(=S)(OCC)SCN1C(=O)c2ccccc2C1=O | 43 mg/kg |
| Cc1c(C(C)C)c(=O)n(-c2ccccc2)n1C | 860 mg/kg |
| C[N+](C)(C)[O-] | 8700 mg/kg |
| CCC(SC(C)=NOC(=O)NC)C(N)=O (configuration not stated) | 14.1 mg/kg |
| C=C(C)C1CC=C(C=NO)CC1 (configuration not stated) | 2500 mg/kg |
| CC1C(=NOC(=O)N(C)SC(Cl)(Cl)Cl)SCC(=O)N1C (configuration not stated) | 3.54 mg/kg |
| Cc1cc(Cl)ccc1OCCCC(=O)O | 700 mg/kg |
| Fc1ccc2nc(C(F)(F)F)[nH]c2c1 | 16.6 mg/kg |
| CCOP(=O)(OCC)SC | 47.1 mg/kg |
| COP(=S)(OC)SCn1nc(C)ccc1=O | 8.75 mg/kg |
| NNS(=O)(=O)c1ccc(Oc2ccc(S(=O)(=O)NN)cc2)cc1 | 2300 mg/kg |
| CN1CCC(OC(c2ccccc2)c2ccccc2)CC1 | 698 mg/kg |
| CCOP(=S)(OCC)SCS(=O)CC (configuration not stated) | 2 mg/kg |
| CC(=O)OCC(COC(C)=O)OC(C)=O | 3000 mg/kg |
| CCCCNC(=O)OCC(C)(CCC)COC(N)=O (configuration not stated) | 1040 mg/kg |
| CCC(CCN(CC=C(C)C)CC=C(C)C)(C(N)=O)c1cccc2ccccc12 (configuration not stated) | 283 mg/kg |
| CC(C)c1cccc(C(C)(C)O)c1 | 6000 mg/kg |
| Cn1c2c(c3ccccc31)CCN(CCCN1CCN(c3ccccc3)CC1)C2=O | 650 mg/kg |
| COC(F)(F)C(F)Cl (configuration not stated) | 5130 mg/kg |
| CC[C@@H](C(=O)O)[C@@H]1O[C@@H]([C@@H](C)[C@H](O)[C@H](C)C(=O)[C@H](CC)[C@H]2O[C@]3(C=C[C@@H](O)[C@]4(CC[C@@](C)([C@H]5CC[C@](O)(CC)[C@H](C)O5)O4)O3)[C@H](C)C[C@@H]2C)[C@@H](C)C[C@@H]1C | 18.5 mg/kg |
| CC(CN(C)C)C(C)(O)Cc1ccc(Cl)cc1 (configuration not stated) | 802 mg/kg |

| Compound | LD50 |
| --- | --- |
| O=c1[nH]c2c(Cl)c(Cl)c(Cl)cc2o1 | 1000 mg/kg |
| CCNC(=S)OC(C)C | 568 mg/kg |
| Cc1cccc(C)c1N | 2040 mg/kg |
| CCCCOP(=O)(OCCCC)Oc1ccc2c(C)c(Cl)c(=O)oc2c1 | 63 mg/kg |
| CNC(=O)Oc1cc(C)c(C)c(C)c1 | 178 mg/kg |
| Cc1cc(C)c(C2=C(OC(=O)OC(C)C)c3ccccc3C2=O)c(C)c1 | 707 mg/kg |
| C[C@H]1OC(O[C@H]2[C@@H](O)CC(O[C@H]3[C@@H](O)CC(O[C@H]4CC[C@@]5(C)[C@H](CC[C@@H]6[C@@H]5CC[C@]5(C)[C@@H](C7=CC(=O)OC7)[C@@H](OC=O)C[C@]65O)C4)O[C@@H]3C)O[C@@H]2C)C[C@H](O)[C@@H]1O (some centres not stated) | 30 mg/kg |
| CCCCCCCCCCCCOCC(O)COS(=O)(O)=S (configuration not stated) | 1820 mg/kg |
| CC=CC(C)C1(CC)C(=O)NC(=O)NC1=O (configuration not stated) | 20 mg/kg |
| CC1(C)OCC(CO)O1 (configuration not stated) | 7000 mg/kg |
| Nc1ccc2[nH]c3ccccc3c2c1 | 1520 mg/kg |
| NCCNCCNCCO | 4630 mg/kg |
| O=C(O[C@H]1C[C@H]2CC[C@@H](C1)[N+]21CCCC1)C(O)(c1ccccc1)c1ccccc1 | 1510 mg/kg |
| c1ccc(P(c2ccccc2)c2ccccc2)cc1 | 700 mg/kg |
| C=C[C@]1(C)C[C@@H](OC(=O)CSCCN(CC)CC)[C@]2(C)[C@H](C)CC[C@]3(CCC(=O)[C@H]32)[C@@H](C)[C@@H]1O | 2230 mg/kg |
| C=CC[N+]1(CCC(C)CCCC(C)C)CCCCC1 (configuration not stated) | 360 mg/kg |
| CC[C@@]1(O)C[C@H](O[C@H]2C[C@H](N(C)C)[C@H](O[C@H]3C[C@H](O)[C@H](O[C@H]4CCC(=O)[C@H](C)O4)[C@H](C)O3)[C@H](C)O2)c2c(cc3c(c2O)C(=O)c2c(O)cccc2C3=O)[C@H]1C(=O)OC | 58.6 mg/kg |
| Cc1c(Cl)c(=O)oc2cc(OP(=O)(OCCCl)OCCCl)ccc12 | 900 mg/kg |
| O=C1C(CCS(=O)c2ccccc2)C(=O)N(c2ccccc2)N1c1ccccc1 (configuration not stated) | 358 mg/kg |
| CCCCSc1ccc(C(SCCN(C)C)c2ccccc2)cc1 (configuration not stated) | 3800 mg/kg |
| COP(=S)(N=C1SCCS1)OC | 10 mg/kg |
| FC(F)(F)c1nc2c(Br)c(Cl)c(Br)cc2[nH]1 | 8.47 mg/kg |
| S=C1N=CC=NC(=S)SSSS1 | 8530 mg/kg |
| CC(C)(C)NCC(O)CSc1nc(-c2ccc(C(N)=O)s2)cs1 (configuration not stated) | 86 mg/kg |
| CNCCC#N | 2260 mg/kg |

| Compound | LD50 |
| --- | --- |
| COCCOC(=O)C1=C(C)NC(C)=C(C(=O)OC(C)C)C1c1cccc([N+](=O)[O-])c1 (configuration not stated) | 2740 mg/kg |
| CC(C)CNCC(C)C | 258 mg/kg |
| CC(C)OP(=S)(CCl)Sc1ccc(Cl)cc1 (configuration not stated) | 26 mg/kg |
| CNC(=O)Oc1cccc2c1OCCO2 | 126 mg/kg |
| NC1CCc2ccccc2C1 (configuration not stated) | 100 mg/kg |
| Cc1ccc(S(=O)(=O)Cl)cc1 | 4680 mg/kg |
| C=C(CC)C(=O)c1ccc(OCC(=O)O)c(Cl)c1Cl | 1000 mg/kg |
| CC1CCCC2N(C)C=C(C(N)=O)C(=O)N12 (configuration not stated) | 370 mg/kg |
| O=CNC(N1CCOCC1)C(Cl)(Cl)Cl (configuration not stated) | 990 mg/kg |
| CCCCNC(=O)NS(=O)(=O)c1ccc(C)cc1 | 2490 mg/kg |
| CCCOc1ccc(C=CC(=O)OCC)cc1OC | 978 mg/kg |
| CC(C)c1ccc2oc3nc(N)c(C(=O)O)cc3c(=O)c2c1 | 10000 mg/kg |
| CCN(CC)CCOCc1ccc(C)cc1 | 531 mg/kg |
| CCN(CC)c1cccc(OC(=O)NC)c1 | 91 mg/kg |
| OCC1CCc2cc(C3CCCCC3)ccc21 (configuration not stated) | 295 mg/kg and 165 mg/kg |
| C=CCl | 500 mg/kg |
| CC[N+](CC)(CC)CCO | 1000 mg/kg |
| CC(C)OC(C)C | 8470 mg/kg |
| COc1ccccc1OCC(O)CO (configuration not stated) | 1510 mg/kg |
| COc1c(Cl)ccc2[nH]c(C(F)(F)F)nc12 | 3.15 mg/kg |
| CCCc1ccc(O)c(OC)c1 | 2600 mg/kg |
| Cn1c(-c2ccccc2)cc(-c2ccccc2)[n+]1C | 206 mg/kg and 470 mg/kg |
| COP(=O)(OC)C(OC(C)=O)=C(Cl)Cl | 300 mg/kg |
| C[C@H](N)Cc1ccccc1 | 38 mg/kg |
| O=S1(=O)CCCO1 | 100 mg/kg |

| Compound | LD50 |
| --- | --- |
| Oc1ccc(Cl)c(O)c1 | 369 mg/kg |
| CCSSCC | 2030 mg/kg |
| COP(=S)(OC)Oc1ccc(S(C)=O)c(C)c1 (configuration not stated) | 125 mg/kg |
| C=CCSSCC=C | 260 mg/kg |
| CC(C)NCC(O)c1ccc(NS(C)(=O)=O)cc1 (configuration not stated) | 3450 mg/kg |
| COC(F)=C(C(F)(F)F)C(F)(F)F | 1070 mg/kg |
| C[Si](C)(C)N=C=N[Si](C)(C)C | 1730 mg/kg |
| CC(C(=O)O)c1ccc(CC2CCCC2=O)cc1 (configuration not stated) | 145 mg/kg |
| Cc1cc(C)c(S(=O)(=O)O)c(C)c1Nc1ccc(Nc2c(C)cc(C)c(S(=O)(=O)O)c2C)c2c1C(=O)c1ccccc1C2=O | 3350 mg/kg |
| CCCCOC(=S)SC(=S)OCCCC | 1400 mg/kg |
| Clc1cc(Cl)cc(C2(CC(Cl)(Cl)Cl)CO2)c1 (configuration not stated) | 1500 mg/kg |
| CCN(CCC#N)c1ccccc1 | 4840 mg/kg |
| C[C@@H]1CC=CC=CC=CC=C[C@H](O[C@@H]2O[C@H](C)[C@@H](O)[C@H](N)[C@@H]2O)C[C@@H]2O[C@](O)(C[C@@H](O)C[C@H]3O[C@@H]3C=CC(=O)O1)C[C@H](O)[C@H]2C(=O)O | 2730 mg/kg |
| CCCCCCCCCCCCCO | 17200 mg/kg |
| Clc1ccc(CSC(Cn2ccnc2)c2ccc(Cl)cc2Cl)cc1 (configuration not stated) | 1740 mg/kg |
| CN(c1ccc(Cl)cc1)S(=O)(=O)c1ccc(Cl)cc1 | 2500 mg/kg |
| Clc1ccc(-c2cccc(Cl)c2Cl)c(Cl)c1 | 4250 mg/kg |
| CCCN(CCC)CCc1cccc2c1CC(=O)N2 | 396 mg/kg and 862 mg/kg |
| CN(C)c1ccc(C(=C2C=CC(=[N+](C)C)C=C2)c2ccc(N(C)C)cc2)cc1 | 420 mg/kg |
| Cc1ccccc1C(O)(c1ccccc1)C(C)CN(C)C (configuration not stated) | 185 mg/kg |
| Nc1ccc2ccccc2c1 | 727 mg/kg |
| CCCCCC1CNC(C(=O)NC(C(C)Cl)C2OC(SC)C(O)C(O)C2O)C1 (configuration not stated) | 1100 mg/kg |
